Source: paper PMC9216188, “Expanding the Biological Properties of Alkannins and Shikonins: Their Impact on Adipogenesis and Life Expectancy in Nematodes” (Frontiers in Pharmacology, 2022)
Entries after “also recorded” stand apart in the source; their conditions may differ. Like-named read-outs stand apart in the source and are kept apart here.

Experiments:
[1] = Cell viability of undifferentiated 3T3-L1 cells (CellTiter-Glo); assay type: cell-based, Mouse; details: mouse; 0.01, 0.1, and 1 μM, 24 h; read-out: cell viability (% of untreated cells)
Description: (§1) Mouse fibroblast 3T3-L1 preadipocytes were kindly donated by the Laboratory of Inorganic Chemistry, School of Chemical Engineering, Aristotle University of Thessaloniki (Thessaloniki, Greece) and cultured in 75 cm^2 cell culture flasks in high-glucose DMEM supplemented with 10% FBS, 100 units/mL penicillin and […] streptomycin at 37°C in 5% CO2 and standard humidity. Medium was changed three times per week, until cells reached confluence. Two days post-confluency (day 0), cells were induced to differentiate by treating them with a differentiation/induction medium containing DMEM supplemented with 0.5 mM IBMX, 1 μM DEX, […] of insulin, and 10% FBS. Three days later (day 3), the medium was replaced with DMEM containing 10% FBS and 1 μg/ml insulin for two more days, after which (day 5) the medium was changed to DMEM with 10% FBS. The medium was replaced every 2 days until cells were harvested on day 11 ([Tsave et al., 2018]).
(§2) Viability of undifferentiated 3T3-L1 cells upon treatment with various concentrations of the hydroxynaphthoquinones was assessed using CellTiter-Glo assay in opaque-walled 96-well plates. This method utilizes the luciferase reaction for quantifying adenosine triphosphate (ATP), which is an indicator of cellular metabolic activity. Through the luciferase reaction, luminescence is generated in proportion to the amount of available ATP. […] Briefly, cells were seeded in a 96-well plate at a density of 3.5 × 10^3 cells and a total volume of 100 μl per well. After 24 h incubation, cells were treated with different concentrations (10 nM–10 μΜ) of the hydroxynaphthoquinones for 24 and 48 h. After the respective incubation times, cells in each condition were treated with a volume of the reagent equal to the volume of cell culture medium present in each well. The luminescence was recorded with a Glomax 96 microplate luminometer (Promega Corporation, United States). Untreated cells served as control samples. Each assay was performed three times, with at least three replicates each.
(§3) All tested compounds were previously dissolved in DMSO. The final concentration of DMSO in each well was lower than 0.1%. To confirm that DMSO at that concentration was inert, a screening was performed at various concentrations (0.00002%–2%) and cell viability was assessed. Cell viability was expressed as the percentage of viability observed in each compound, compared to the untreated cells.

3T3-L1 pre-adipocytes [2] = experiment: as above; assay type: cell-based, Mouse; details: for inhibition of cell viability: 4 μM; for IC50: Mus musculus, read-out: IC50 (cell viability)
Description: as §1, §2, §3

3T3-L1 pre-adipocytes [3] = experiment: Differentiation of 3T3-L1 cells, lipid quantification by Oil Red O staining; assay type: cell-based, Mouse; details: for lipid accumulation / fold decrease in lipid accumulation / lipid accumulation (formed lipids): 1 μM, ORO stain, day 11; for lipid accumulation: absence of insulin; for fold decrease in lipid accumulation / lipid accumulation (formed lipids): in the presence of insulin
Description: as §1
(§4) 3T3-L1 pre-adipocytes were differentiated into mature adipocytes following the aforementioned differentiation protocol (vide infra). Briefly, pre-adipocytes were treated with either 10 ng/ml of insulin and/or hydroxynaphthoquinones (100 nM or 1 μΜ). The tested compounds were first dissolved in DMSO and subsequently in the culture medium, with the final concentration of DMSO not exceeding 0.1% v/v. The initial stock concentration was 50 mM. Cells treated with insulin were considered as positive control whereas untreated cells were included as vehicle control. On the 11th day of the differentiation process, cell differentiation was assessed and validated by oil red O staining, as described elsewhere ([Tsave et al., 2016]). Further validation of successful adipogenesis was also confirmed by the relative expression of closely related biomarkers PPAR-γ and adiponectin (ADIPOQ).
3T3-L1 preadipocytes were seeded in 24-well plates at a density of 3.5 × 10^4 cells per well and differentiated as described above. On the 11th day, cells were washed three times with sterile PBS, fixed with formaldehyde 3.7%–4.0% for 20 min and stained with Oil Red O (ORO) solution for 10 min. Next, cells were washed with double distilled water (ddH2O) and stained lipids were observed and imaged under an inverted microscope, as described elsewhere ([Tsave et al., 2016]). The analysis and quantification of lipid accumulation—based on the amount of ORO dye—was performed by using ImageJ software (National Institutes of Health, United States). In brief, the RGB images with the stained lipids were converted to 8-bit grayscale (Image → Type → 8-bit). Next, a manual threshold was set (Image → Adjust → Threshold) for each sample and the stained areas were measured (Analyze → Measure) ([Mehlem et al., 2013]).

PPAR-γ [4] = experiment: RT-PCR relative mRNA expression of PPAR-γ in differentiated 3T3-L1 cells; assay type: cell-based, Mouse; details: day 11
Description: as §4
(§5) Total RNA was extracted from cells on the 11th day of the differentiation protocol, using TRItidy-G reagent. The concentration and purity (absorbance ratio 260/280) of the extracted RNA were measured with a NanoDrop™ 2000c spectrophotometer (Thermo Fisher Scientific, United States). Synthesis of cDNA was performed with the iScript cDNA synthesis kit according to manufacturer instructions. RT-PCR was run on Rotor Gene Q (Qiagen) using the iTaq Universal SYBR Green Supermix and appropriate reagents (Qiagen, United States).
(§6) Customized primers were used from Qiagen for adiponectin (Mm_Adipoq_1_SG, NM_009605, Q01048047), GAPDH (Mm Gapdh_3_SG, QT01658692) and mPPAR-γ forward 5′-GTCAGCGACTGGGACTTTTC-3′ and reverse 5′-CGAGGACATCCAAGACAACC-3’.

ADIPOQ [5] = experiment: RT-PCR relative mRNA expression of ADIPOQ in differentiated 3T3-L1 cells; assay type: cell-based, Mouse; details: day 11
Description: as §4, §5, §6

C. elegans N2 wild-type = experiment: C. elegans survival assay (nematocidal activity); assay type: in vivo, Caenorhabditis elegans; details: for % Survival after 10 days ±SD: N2 worms
Description: Caenorhabditis elegans wild-type var. Bristol N2, SS104 [glp-4 (bn2ts)] and Escherichia coli OP50 were provided by the Caenorhabditis Genetics Center (University of Minnesota, United States). Media and NGM agar plates have been prepared as described before ([Zwirchmayr et al., 2020]). OP50 were grown in LB medium for 8 h at 37°C, then harvested by centrifugation, washed twice with ddH2O and suspended in S-complete medium at 100 mg/ml. Worms were maintained on NGM agar plates inoculated with OP50. Synchronized cultures were prepared by egg-prep method ([Porta-de-la-Riva et al., 2012]) and experiments started at the […].
The survival assay was performed as described before: Briefly, a suspension of 5–18 synchronized L1 larvae (N2 wild-type) in S-complete medium were manually seeded into 96-well plates. OP50 at a concentration of 6 mg/ml was added immediately and worms were kept at 25°C. The following day, when all worms reached the L3 stage, the sterilizing-agent 5-Fluorodeoxyuridine (FUdR; 0.12 mM final; Sigma-Aldrich, F0503) was added to keep the population synchronized. The next day, samples were added in triplicate wells to the adult worm culture with DMSO as a carrier at a final concentration of 1%. The number of living worms in each well was counted on day 0, 3, 5, 7 and 10 of the treatment. The worms were oxygenized every 3 days and OP50 were added on day 5 of adulthood to prevent starvation. Results of three parallel experiments are presented as bar charts and are given as the mean survival rate of worms.

C. elegans = system: C. elegans; design: method as in Hunt et al., 2011; details: 100 to 500 μM, applied to solid agar medium ref Hunt et al., 2011; cited from earlier work
3T3-L1 pre-adipocytes [6] = system: 3T3-L1 pre-adipocytes; design: method as in Lee et al., 2010; Gwon et al., 2013; Ha et al., 2016; details: 0.5–2 μM ref Lee et al., 2010; Gwon et al., 2013; Ha et al., 2016; cited from earlier work
PPAR-γ [7] = system: PPAR-γ; design: method as in Lee et al., 2010; Gwon et al., 2013; details: 0.5–2 μM ref Lee et al., 2010; Gwon et al., 2013; cited from earlier work
ADIPOQ [8] = system: ADIPOQ; design: method as in Lee H.-Y. et al., 2009; details: 2 μM ref Lee H.-Y. et al., 2009; cited from earlier work
[9] = compound alone, absence of insulin

Compound: CC(C)=CC[C@H](O)C1=CC(=O)c2c(O)ccc(O)c2C1=O [A, Alkannin]
- viability [1]: > 146%
- inhibition of cell viability (3T3-L1 pre-adipocytes [2]; 24 h): more than 90%
- IC50 (3T3-L1 pre-adipocytes [2]; 3T3-L1 cells, 24 h): < 3000 nM
- lipid accumulation (3T3-L1 pre-adipocytes [3]): 1.56%
- fold decrease in lipid accumulation (3T3-L1 pre-adipocytes [3]): 37 fold
- inhibition of the formation of lipids (3T3-L1 pre-adipocytes [3]; in the presence of insulin (Figure 4)): ~100%
- PPAR-γ mRNA expression, fold increase (PPAR-γ [4]; compound together with insulin): 0.20 fold
- ADIPOQ mRNA expression, fold increase (ADIPOQ [5]; [9]): strongest inhibition
- ADIPOQ mRNA expression, fold increase (ADIPOQ [5]; compound together with insulin): not showing any increase at all

Compound: CC(=O)O[C@H](CC=C(C)C)C1=CC(=O)c2c(O)ccc(O)c2C1=O [ACS, Acetyl-shikonin]
- concentrations showing reduced cell viability (3T3-L1 pre-adipocytes [2]; 24 h): > 4 µM

Compound: CC(C)=CC[C@@H](OC(=O)C=C(C)C)C1=CC(=O)c2c(O)ccc(O)c2C1=O [DMAS, β,β-Dimethyl-acryl-shikonin]
- concentrations showing reduced cell viability (3T3-L1 pre-adipocytes [2]; mouse, 24 h): > 4 µM
- lipid accumulation (3T3-L1 pre-adipocytes [3]): 15.65%
- lipid accumulation (formed lipids) (3T3-L1 pre-adipocytes [3]): 9.24%
- PPAR-γ mRNA expression, fold increase (PPAR-γ [4]; [9]): 8.37 fold
- PPAR-γ mRNA expression, fold increase (PPAR-γ [4]; compound together with insulin): 4.71 fold
- ADIPOQ mRNA expression, fold increase (ADIPOQ [5]; [9]): 3.03 fold
- ADIPOQ mRNA expression, fold increase (ADIPOQ [5]; compound together with insulin): 3.24 fold
- % Survival after 10 days ±SD (C. elegans N2 wild-type; 15 μg/ml): 73.87 ± 1.61 %
- % Survival after 10 days ±SD (C. elegans N2 wild-type; 60 μg/ml): 62.22 ± 17.36 %

Compound: CC(C)=CCCC1=CC(=O)c2c(O)ccc(O)c2C1=O [DS, Deoxy-shikonin]
- concentrations showing reduced cell viability (3T3-L1 pre-adipocytes [2]; 24 h): > 4 µM
- lipid accumulation (3T3-L1 pre-adipocytes [3]): 1.78%
- lipid accumulation (formed lipids) (3T3-L1 pre-adipocytes [3]): exceeded 10%
- PPAR-γ mRNA expression, fold increase (PPAR-γ [4]; compound together with insulin): 5.08 fold
- ADIPOQ mRNA expression, fold increase (ADIPOQ [5]; [9]): strongest inhibition; also recorded: complete impediment of ADIPOQ expression
- ADIPOQ mRNA expression, fold increase (ADIPOQ [5]; compound together with insulin): 4.85 fold

Compound: CC(C)=CC[C@@H](OC(=O)CC(C)C)C1=CC(=O)c2c(O)ccc(O)c2C1=O [IVS, Isovaleryl-shikonin]
- IC50 (3T3-L1 pre-adipocytes [2]; 3T3-L1 cells, 24 h): 8660 nM
- concentrations showing reduced cell viability (3T3-L1 pre-adipocytes [2]; mouse, 24 h): > 4 µM

Compound: O=C1C=CC(=O)c2c(O)ccc(O)c21 [NAPH, Naphthazarin]
- IC50 (3T3-L1 pre-adipocytes [2]; 3T3-L1, 24 h): < 3000 nM
- lipid accumulation (3T3-L1 pre-adipocytes [3]): 5.74%
- lipid accumulation (formed lipids) (3T3-L1 pre-adipocytes [3]): exceeded 10%
- PPAR-γ mRNA expression, fold increase (PPAR-γ [4]; compound together with insulin): 5.2 fold
- ADIPOQ mRNA expression, fold increase (ADIPOQ [5]; [9]): 1.79 fold
- ADIPOQ mRNA expression, fold increase (ADIPOQ [5]; compound together with insulin): 2.13 fold
- % Survival after 10 days ±SD (C. elegans N2 wild-type; 15 μg/ml): 0.00 ± 0.00 %
- worms surviving the first 3 days of treatment (C. elegans N2 wild-type; 15 μg/ml, day 3): 50%
- % Survival after 10 days ±SD (C. elegans N2 wild-type; 60 μg/ml): 0.00 ± 0.00 %
- nematodes dead at the third day of treatment (C. elegans N2 wild-type; 60 μg/ml, day 3): ~100%
- effect on lifespan of C. elegans (C. elegans): extend the lifespan

Compound: CC(C)=CC[C@@H](O)C1=CC(=O)c2c(O)ccc(O)c2C1=O [S, Shikonin]
- viability [1]: > 146%
- inhibition of cell viability (3T3-L1 pre-adipocytes [2]; 24 h): more than 90%
- IC50 (3T3-L1 pre-adipocytes [2]; 3T3-L1 cells, 24 h): < 3000 nM
- lipid accumulation (3T3-L1 pre-adipocytes [3]): 2.58%
- fold decrease in lipid accumulation (3T3-L1 pre-adipocytes [3]): 22 fold
- PPAR-γ mRNA expression, fold increase (PPAR-γ [4]; compound together with insulin): 1.27 fold
- ADIPOQ mRNA expression, fold increase (ADIPOQ [5]; [9]): 2.4 fold
- ADIPOQ mRNA expression, fold increase (ADIPOQ [5]; compound together with insulin): < 1 fold
- effect on adipogenesis (3T3-L1 pre-adipocytes [6]): inhibit adipogenesis
- effect on expression of PPAR-γ (PPAR-γ [7]): significantly inhibited
- effect on ADIPOQ expression (ADIPOQ [8]): strongly inhibit

Compound: CC(C)=CC[C@@H](OC(=O)CC(C)(C)O)C1=CC(=O)c2c(O)ccc(O)c2C1=O [β-hydroxy-isovaleryl-shikonin, reference compound]
- effect on adipogenesis (3T3-L1 pre-adipocytes [6]): inhibit adipogenesis

Compound: insulin: human recombinant insulin, positive control of differentiation [reference compound]
- PPAR-γ mRNA expression, fold increase (PPAR-γ [4]; positive control sample (insulin group)): 10.78 fold
- ADIPOQ mRNA expression, fold increase (ADIPOQ [5]; positive control sample (insulin)): 8.67 fold
